Assay [1] in a line: Cytotoxicity against c-Met over-expressed human HT-29 cells assessed as cell growth inhibition after 72 hrs by MTT assay. The note with it: HT-29, 72 h. For orientation: Tetrazolium dyes change colour on reduction, which living cells bring about.
Assay [2] in a line: Cytotoxicity against c-Met over-expressed human H460 cells assessed as cell growth inhibition after 72 hrs by MTT assay. The note with it: NCI-H460, 72 h.
A short description of assay [3]: Cytotoxicity against c-Met over-expressed human A549 cells assessed as cell growth inhibition after 72 hrs by MTT assay. The note with it: A549, 72 h.
Assay [4] in a line: Cytotoxicity against c-Met over-expressed human MKN45 cells assessed as cell growth inhibition after 72 hrs by MTT assay. The note with it: MKN-45, 72 h.
In assay [5] the target is Hepatocyte growth factor receptor (Homo sapiens, UniProt P08581). Put plainly: Inhibition of c-MET (unknown origin) using poly(Glu, Tyr)4:1 as substrate after 30 mins by HTRF assay.
Chain of Hepatocyte growth factor receptor (P08581 whole entry): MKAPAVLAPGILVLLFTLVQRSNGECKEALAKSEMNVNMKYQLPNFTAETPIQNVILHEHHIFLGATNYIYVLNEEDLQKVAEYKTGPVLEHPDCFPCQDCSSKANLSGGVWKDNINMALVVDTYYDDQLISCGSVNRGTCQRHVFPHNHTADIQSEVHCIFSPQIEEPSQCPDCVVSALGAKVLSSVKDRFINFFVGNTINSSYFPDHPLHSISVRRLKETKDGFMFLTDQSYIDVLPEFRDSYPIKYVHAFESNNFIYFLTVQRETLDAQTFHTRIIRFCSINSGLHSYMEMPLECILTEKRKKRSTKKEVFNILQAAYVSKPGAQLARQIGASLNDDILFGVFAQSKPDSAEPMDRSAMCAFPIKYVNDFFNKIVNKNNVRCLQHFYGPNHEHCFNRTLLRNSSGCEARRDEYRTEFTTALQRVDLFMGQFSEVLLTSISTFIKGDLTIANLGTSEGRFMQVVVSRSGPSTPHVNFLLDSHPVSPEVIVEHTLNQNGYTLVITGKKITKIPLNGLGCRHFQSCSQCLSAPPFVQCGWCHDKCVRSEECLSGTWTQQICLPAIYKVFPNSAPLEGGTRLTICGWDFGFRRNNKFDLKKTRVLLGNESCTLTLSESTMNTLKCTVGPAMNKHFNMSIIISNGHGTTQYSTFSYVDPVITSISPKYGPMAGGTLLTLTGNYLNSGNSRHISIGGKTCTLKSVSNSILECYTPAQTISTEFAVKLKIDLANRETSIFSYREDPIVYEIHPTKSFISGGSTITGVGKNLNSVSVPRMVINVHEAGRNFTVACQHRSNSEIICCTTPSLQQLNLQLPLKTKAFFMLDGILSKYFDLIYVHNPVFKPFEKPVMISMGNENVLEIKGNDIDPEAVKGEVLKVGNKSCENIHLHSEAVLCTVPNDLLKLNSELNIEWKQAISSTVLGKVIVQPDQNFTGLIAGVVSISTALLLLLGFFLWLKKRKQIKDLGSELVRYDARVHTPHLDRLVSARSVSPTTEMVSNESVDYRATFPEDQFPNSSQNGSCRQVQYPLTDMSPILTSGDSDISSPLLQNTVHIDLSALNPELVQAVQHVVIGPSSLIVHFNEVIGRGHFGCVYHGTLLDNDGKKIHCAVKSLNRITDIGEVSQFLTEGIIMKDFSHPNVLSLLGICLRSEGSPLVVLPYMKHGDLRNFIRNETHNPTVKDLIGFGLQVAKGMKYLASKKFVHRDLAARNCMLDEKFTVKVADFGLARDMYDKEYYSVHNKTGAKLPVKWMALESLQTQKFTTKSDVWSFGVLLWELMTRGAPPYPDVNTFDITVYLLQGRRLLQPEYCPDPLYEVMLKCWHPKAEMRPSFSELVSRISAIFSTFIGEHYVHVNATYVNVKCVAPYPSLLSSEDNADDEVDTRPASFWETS
Assay [6] deals with Mast/stem cell growth factor receptor Kit (Homo sapiens, UniProt P10721). Put plainly: Inhibition of c-Kit (unknown origin) after 30 mins by HTRF assay. (Time-resolved FRET reads energy transfer from a long-lived donor to a nearby acceptor.)
For assay [7], the target named is T1, Receptor-type tyrosine-protein kinase FLT3 (Homo sapiens, UniProt P36888).
T1 sequence (P36888 whole entry): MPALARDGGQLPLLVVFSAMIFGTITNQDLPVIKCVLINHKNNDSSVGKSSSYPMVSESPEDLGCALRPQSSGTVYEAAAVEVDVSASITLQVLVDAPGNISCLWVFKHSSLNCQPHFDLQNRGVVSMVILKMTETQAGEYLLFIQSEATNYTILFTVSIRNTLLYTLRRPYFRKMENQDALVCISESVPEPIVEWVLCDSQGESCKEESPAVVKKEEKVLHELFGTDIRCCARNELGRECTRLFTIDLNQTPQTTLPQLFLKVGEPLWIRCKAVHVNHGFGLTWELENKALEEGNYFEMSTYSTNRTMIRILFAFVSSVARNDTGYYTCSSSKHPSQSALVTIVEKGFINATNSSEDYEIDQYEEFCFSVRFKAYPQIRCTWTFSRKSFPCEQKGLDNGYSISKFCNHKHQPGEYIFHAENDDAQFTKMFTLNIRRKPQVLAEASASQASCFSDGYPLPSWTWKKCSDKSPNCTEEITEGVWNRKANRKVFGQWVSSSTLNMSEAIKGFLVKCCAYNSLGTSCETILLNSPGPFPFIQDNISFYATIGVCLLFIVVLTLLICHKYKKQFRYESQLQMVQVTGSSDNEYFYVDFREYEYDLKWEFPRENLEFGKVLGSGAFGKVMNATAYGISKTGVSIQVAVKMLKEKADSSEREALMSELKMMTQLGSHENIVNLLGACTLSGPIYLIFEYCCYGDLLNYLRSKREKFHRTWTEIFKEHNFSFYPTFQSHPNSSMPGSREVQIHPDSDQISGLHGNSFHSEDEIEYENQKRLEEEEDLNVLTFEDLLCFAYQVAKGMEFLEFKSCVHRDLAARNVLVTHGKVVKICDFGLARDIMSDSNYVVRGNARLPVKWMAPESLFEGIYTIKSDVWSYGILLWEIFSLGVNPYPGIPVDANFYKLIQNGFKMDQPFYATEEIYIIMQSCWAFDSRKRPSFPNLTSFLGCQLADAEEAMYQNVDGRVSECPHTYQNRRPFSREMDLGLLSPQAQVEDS
Put plainly: Inhibition of FLT3 (unknown origin) after 30 mins by HTRF assay.

Assay [8] has as its target Platelet-derived growth factor receptor alpha (Homo sapiens, UniProt P16234). Put plainly: Inhibition of PDGFRalpha (unknown origin) after 30 mins by HTRF assay.
The target of assay [9] is Macrophage-stimulating protein receptor (Homo sapiens, UniProt Q04912). Put plainly: Inhibition of Ron (unknown origin) after 30 mins by HTRF assay.
The target of assay [10] is Vascular endothelial growth factor receptor 2 (Homo sapiens, UniProt P35968). Put plainly: Inhibition of VEGFR2 (unknown origin) after 30 mins by HTRF assay.
Chain of Vascular endothelial growth factor receptor 2 (P35968 whole entry): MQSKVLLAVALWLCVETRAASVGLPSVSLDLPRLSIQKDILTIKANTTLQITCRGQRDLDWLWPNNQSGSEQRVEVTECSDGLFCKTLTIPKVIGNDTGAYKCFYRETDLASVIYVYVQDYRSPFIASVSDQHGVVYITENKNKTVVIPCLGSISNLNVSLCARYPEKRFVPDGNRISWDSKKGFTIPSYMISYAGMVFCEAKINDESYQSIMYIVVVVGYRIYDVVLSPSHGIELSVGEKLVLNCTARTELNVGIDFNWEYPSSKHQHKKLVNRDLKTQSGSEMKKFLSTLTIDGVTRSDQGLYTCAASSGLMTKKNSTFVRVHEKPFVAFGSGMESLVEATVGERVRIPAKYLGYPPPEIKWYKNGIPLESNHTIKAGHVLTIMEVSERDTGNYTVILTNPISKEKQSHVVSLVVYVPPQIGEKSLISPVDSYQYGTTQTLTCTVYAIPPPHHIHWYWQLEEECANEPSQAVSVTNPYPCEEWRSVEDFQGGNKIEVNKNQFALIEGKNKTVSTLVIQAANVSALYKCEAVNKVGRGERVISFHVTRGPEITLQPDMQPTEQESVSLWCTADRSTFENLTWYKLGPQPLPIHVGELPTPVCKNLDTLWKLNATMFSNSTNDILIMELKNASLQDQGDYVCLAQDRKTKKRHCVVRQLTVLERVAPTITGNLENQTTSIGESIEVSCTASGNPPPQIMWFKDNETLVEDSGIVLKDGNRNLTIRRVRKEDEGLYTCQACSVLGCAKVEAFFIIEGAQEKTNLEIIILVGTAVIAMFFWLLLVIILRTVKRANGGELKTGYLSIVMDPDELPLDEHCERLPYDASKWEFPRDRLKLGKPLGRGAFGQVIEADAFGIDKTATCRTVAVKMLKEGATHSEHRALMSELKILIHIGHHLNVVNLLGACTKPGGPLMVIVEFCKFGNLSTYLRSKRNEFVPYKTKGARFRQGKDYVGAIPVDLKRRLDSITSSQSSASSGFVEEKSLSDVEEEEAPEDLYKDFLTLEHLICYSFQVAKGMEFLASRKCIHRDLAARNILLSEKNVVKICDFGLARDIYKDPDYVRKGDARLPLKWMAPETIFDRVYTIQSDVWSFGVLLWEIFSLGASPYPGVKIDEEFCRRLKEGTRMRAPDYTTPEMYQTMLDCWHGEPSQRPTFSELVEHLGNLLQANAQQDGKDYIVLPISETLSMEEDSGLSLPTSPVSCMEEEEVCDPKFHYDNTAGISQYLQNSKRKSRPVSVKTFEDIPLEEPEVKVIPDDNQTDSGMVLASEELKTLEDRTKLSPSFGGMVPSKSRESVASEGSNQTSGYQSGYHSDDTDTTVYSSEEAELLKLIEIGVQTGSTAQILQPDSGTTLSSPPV
Assay [11] has as its target Epidermal growth factor receptor (Homo sapiens, UniProt P00533). Put plainly: Inhibition of EGFR (unknown origin) after 30 mins by HTRF assay.
For the next assay, the species on record is Homo sapiens. Put plainly: Selectivity ratio of IC50 for VEGFR2 (unknown origin) to IC50 for c-MET (unknown origin).
The next assay relates to MKN-45. Put plainly: Potency index, ratio of foretinib IC50 to compound IC50 for human MKN45 cells. Type of assay: functional.
The subject of a further assay is HT-29. Put plainly: Potency index, ratio of foretinib IC50 to compound IC50 for human HT-29 cells. Type of assay: functional.
Assay [12] is described as follows: Potency index, ratio of foretinib IC50 to compound IC50 for human H460 cells. Type of assay: functional.
The test system of a further assay is A549. Put plainly: Potency index, ratio of foretinib IC50 to compound IC50 for human A549 cells. Type of assay: functional.

Chain of Epidermal growth factor receptor (P00533 whole entry): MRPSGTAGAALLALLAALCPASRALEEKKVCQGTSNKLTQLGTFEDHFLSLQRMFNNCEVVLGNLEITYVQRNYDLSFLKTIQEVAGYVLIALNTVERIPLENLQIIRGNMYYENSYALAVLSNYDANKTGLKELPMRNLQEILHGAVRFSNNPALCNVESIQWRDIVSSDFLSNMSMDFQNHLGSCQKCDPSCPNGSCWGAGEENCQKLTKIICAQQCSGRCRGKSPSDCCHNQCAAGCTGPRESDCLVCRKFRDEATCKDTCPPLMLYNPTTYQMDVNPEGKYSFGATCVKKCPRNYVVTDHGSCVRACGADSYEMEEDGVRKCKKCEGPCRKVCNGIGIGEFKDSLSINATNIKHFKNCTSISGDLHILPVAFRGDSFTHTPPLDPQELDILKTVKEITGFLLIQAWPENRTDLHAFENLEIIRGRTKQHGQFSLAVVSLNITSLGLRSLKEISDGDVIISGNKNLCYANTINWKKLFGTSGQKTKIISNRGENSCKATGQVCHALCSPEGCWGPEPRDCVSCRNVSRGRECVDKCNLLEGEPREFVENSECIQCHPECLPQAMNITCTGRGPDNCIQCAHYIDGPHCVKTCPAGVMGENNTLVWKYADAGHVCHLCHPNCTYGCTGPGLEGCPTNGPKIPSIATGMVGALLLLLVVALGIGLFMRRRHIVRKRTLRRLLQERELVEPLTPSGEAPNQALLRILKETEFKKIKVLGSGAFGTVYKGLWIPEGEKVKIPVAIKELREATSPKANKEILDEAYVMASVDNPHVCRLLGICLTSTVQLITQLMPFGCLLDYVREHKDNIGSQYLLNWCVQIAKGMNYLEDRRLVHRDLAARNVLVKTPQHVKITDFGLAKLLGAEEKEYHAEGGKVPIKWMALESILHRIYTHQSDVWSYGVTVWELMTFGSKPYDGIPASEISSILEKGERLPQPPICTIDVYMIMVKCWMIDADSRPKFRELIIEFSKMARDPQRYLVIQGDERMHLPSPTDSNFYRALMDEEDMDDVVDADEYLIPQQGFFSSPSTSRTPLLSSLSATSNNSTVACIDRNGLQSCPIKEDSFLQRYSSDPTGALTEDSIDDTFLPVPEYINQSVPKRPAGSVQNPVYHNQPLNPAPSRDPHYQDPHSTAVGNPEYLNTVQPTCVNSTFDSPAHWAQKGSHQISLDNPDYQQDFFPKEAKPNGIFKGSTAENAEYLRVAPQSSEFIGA
Chain of Platelet-derived growth factor receptor alpha (P16234 whole entry): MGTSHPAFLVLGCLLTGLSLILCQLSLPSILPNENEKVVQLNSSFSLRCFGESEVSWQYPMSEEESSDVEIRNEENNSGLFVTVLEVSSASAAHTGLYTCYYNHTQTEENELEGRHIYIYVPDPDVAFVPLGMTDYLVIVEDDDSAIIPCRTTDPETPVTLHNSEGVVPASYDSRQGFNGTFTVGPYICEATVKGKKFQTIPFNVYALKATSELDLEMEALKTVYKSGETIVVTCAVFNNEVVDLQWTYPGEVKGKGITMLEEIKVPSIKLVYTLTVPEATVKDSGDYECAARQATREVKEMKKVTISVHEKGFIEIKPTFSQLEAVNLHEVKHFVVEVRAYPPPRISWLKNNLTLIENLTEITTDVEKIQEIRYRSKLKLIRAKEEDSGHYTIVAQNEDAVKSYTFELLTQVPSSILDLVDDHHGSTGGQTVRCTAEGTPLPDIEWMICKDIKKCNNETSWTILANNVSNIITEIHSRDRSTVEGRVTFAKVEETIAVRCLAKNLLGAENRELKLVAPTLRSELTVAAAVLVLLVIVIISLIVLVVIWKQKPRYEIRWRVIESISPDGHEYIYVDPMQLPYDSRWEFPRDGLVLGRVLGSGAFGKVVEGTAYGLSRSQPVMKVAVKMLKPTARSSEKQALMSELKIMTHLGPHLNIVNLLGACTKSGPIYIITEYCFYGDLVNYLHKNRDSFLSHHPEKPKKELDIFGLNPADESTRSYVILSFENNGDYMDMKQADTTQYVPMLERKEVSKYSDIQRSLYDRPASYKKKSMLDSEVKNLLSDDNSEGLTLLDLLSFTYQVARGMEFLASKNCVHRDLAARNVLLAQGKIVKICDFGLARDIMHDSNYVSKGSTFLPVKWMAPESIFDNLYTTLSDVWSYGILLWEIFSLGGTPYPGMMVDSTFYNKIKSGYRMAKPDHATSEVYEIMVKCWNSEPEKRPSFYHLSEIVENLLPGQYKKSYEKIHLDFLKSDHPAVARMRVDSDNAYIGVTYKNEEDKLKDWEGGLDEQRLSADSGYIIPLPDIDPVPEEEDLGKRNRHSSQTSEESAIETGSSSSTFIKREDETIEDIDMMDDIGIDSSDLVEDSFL

One may read the IC50 as the point on the concentration scale where inhibition reaches its midpoint. `COc1cc2c(Oc3ccc(NC(=O)c4nn(-c5ccccc5F)c(=O)n4C)cc3F)ccnc2cc1OCCCN1CCN(C)CC1`: the IC50 in assay [1] worked out at 80 nM; in [2] it was 140 nM; in assay [3], 110 nM; in assay [4], 30 nM; in [5], 1.57 nM; in [6], 3.38 nM. In addition, the 50% inhibitory concentration (IC50) in [7] was 8.19 nM; in [8], 95.2 nM; in [9], 141 nM; in [10], 480 nM; in assay [11] it was above 10000 nM. The Ratio IC50 was 306 in the assay listed under Homo sapiens; 1.1 - 2.3 in the assay on MKN-45; 1.1 - 2.3 with HT-29; 1.1 - 2.3 in [12]; 1.1 - 2.3 in the assay on A549.

Values taken from ChEMBL document CHEMBL3870316, “Design, synthesis and structure-activity relationships of novel 4-phenoxyquinoline derivatives containing 1,2,4-triazolone moiety as c-Met kinase inhibitors” (Eur J Med Chem, 2016).
